According to ChEMBL document CHEMBL4649985, “Generation of a Selective Small Molecule Inhibitor of the CBP/p300 Bromodomain for Leukemia Therapy” (Cancer Res, 2015):
Values joined by “and” are separate entries in the source; they are usually repeats but may differ in a detail not shown here. Equal entries are not always repeated.

Columns and labels:
[1] = target: T1, Bromodomain-containing protein 4 (Homo sapiens, UniProt O60885); assay: Alphascreen assay. Binding to BRD4A (domain start/stop: N44-E168) by alphascreen assay
CREB-binding protein [2] = target: T2, CREB-binding protein (Homo sapiens, UniProt Q92793); assay: Alphascreen assay. Binding to CREBBPA (domain start/stop: R1081-G1197) by alphascreen assay
[3] = target: Bromodomain-containing protein 3 (Homo sapiens) (UniProt Q15059); assay: Thermal Shift Assay. Domain start/stop: P24-E144; conditions: Compound concentration 10.0 uM, Protein concentration 2.0 uM
Sequence of Bromodomain-containing protein 3 (Homo sapiens) (Q15059 2-726 limits assumed): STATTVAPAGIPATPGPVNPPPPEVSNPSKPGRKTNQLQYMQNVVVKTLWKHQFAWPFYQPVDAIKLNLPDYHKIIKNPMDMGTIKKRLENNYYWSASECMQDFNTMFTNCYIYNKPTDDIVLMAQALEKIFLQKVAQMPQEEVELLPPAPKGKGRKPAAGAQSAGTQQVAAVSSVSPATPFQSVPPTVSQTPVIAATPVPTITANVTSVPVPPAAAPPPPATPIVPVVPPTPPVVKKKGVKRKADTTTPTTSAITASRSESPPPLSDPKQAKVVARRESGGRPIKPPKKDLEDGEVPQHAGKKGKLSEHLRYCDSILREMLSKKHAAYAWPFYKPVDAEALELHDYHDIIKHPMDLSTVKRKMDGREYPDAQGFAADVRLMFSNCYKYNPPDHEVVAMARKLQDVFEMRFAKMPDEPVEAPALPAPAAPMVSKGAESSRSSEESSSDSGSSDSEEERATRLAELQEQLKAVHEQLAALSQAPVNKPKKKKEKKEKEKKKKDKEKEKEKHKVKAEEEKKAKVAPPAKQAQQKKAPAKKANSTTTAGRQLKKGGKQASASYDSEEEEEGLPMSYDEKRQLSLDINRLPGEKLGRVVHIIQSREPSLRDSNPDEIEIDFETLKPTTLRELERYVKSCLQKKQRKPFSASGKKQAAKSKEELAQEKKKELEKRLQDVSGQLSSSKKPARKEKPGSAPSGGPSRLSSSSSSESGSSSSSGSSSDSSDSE

[4] = target: Protein polybromo-1 (Homo sapiens) (UniProt Q86U86); assay: Thermal Shift Assay. Domain start/stop: H23-D159; conditions: Compound concentration 10.0 uM, Protein concentration 2.0 uM
Sequence of Protein polybromo-1 (Homo sapiens) (Q86U86 whole entry): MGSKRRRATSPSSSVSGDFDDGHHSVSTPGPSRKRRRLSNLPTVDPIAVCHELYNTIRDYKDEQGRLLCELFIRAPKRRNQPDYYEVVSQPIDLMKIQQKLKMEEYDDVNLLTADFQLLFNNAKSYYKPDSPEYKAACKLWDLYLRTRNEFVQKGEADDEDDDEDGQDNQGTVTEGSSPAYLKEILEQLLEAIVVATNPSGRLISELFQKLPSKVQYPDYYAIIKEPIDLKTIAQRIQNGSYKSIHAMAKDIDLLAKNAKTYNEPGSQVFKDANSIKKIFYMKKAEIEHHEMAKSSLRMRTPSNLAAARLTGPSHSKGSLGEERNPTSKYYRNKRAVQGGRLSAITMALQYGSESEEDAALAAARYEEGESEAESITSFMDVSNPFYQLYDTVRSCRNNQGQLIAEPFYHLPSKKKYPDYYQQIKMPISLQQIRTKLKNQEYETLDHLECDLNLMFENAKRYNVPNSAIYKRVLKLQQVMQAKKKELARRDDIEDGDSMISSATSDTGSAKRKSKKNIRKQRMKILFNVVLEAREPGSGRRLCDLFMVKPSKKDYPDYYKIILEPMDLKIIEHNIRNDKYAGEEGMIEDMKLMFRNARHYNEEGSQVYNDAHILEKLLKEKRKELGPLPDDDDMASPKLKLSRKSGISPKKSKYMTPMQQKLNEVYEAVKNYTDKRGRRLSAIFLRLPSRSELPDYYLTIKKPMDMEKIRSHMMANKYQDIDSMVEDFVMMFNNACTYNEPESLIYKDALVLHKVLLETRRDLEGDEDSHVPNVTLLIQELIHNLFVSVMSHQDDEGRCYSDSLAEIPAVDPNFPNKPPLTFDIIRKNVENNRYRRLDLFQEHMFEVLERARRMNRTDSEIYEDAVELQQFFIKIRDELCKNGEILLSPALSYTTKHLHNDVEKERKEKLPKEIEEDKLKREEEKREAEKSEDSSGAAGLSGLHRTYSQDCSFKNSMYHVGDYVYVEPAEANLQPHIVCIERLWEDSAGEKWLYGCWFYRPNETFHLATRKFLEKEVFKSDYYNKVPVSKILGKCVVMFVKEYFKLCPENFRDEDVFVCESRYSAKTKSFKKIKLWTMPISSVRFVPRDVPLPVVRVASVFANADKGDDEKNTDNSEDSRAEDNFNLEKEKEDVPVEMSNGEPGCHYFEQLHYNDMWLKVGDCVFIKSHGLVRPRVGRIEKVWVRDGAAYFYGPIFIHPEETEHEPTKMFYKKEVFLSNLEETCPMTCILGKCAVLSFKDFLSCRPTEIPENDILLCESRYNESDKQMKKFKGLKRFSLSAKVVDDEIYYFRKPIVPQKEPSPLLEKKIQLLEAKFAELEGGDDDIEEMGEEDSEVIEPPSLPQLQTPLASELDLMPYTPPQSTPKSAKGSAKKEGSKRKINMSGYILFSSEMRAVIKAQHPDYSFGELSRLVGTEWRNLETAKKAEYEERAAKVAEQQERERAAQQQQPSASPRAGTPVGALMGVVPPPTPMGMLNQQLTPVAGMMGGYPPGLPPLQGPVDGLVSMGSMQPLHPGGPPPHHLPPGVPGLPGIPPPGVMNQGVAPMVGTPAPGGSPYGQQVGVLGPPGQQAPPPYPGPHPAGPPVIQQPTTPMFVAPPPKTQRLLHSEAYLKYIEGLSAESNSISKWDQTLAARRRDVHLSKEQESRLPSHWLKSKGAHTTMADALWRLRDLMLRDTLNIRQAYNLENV

[5] = target: Protein polybromo-1 (Homo sapiens) (UniProt Q86U86); assay: Thermal Shift Assay. Domain start/stop: R487-D598; conditions: Compound concentration 10.0 uM, Protein concentration 2.0 uM
[6] = target: Tripartite motif-containing protein 66 (Homo sapiens) (UniProt O15016); assay: Thermal Shift Assay. Domain start/stop: M1091-S1218; conditions: Compound concentration 10.0 uM, Protein concentration 2.0 uM
[7] = target: PH-interacting protein (Homo sapiens) (UniProt Q8WWQ0); conditions: Compound concentration 50.0 uM, Protein concentration 0.025 uM
[8] = target: Histone-lysine N-methyltransferase ASH1L (Homo sapiens) (UniProt Q9NR48); conditions: Compound concentration 10.0 uM, Protein concentration 2.0 uM
[9] = target: ATPase family AAA domain-containing protein 2 (Homo sapiens) (UniProt Q6PL18); conditions: Compound concentration 10.0 uM, Protein concentration 2.0 uM
[10] = target: ATPase family AAA domain-containing protein 2B (Homo sapiens) (UniProt Q9ULI0); conditions: Compound concentration 10.0 uM, Protein concentration 2.0 uM
[11] = target: Bromodomain adjacent to zinc finger domain protein 1A (Homo sapiens) (UniProt Q9NRL2); conditions: Compound concentration 10.0 uM, Protein concentration 2.0 uM
[12] = target: Bromodomain adjacent to zinc finger domain protein 2A (Homo sapiens) (UniProt Q9UIF9); conditions: Compound concentration 10.0 uM, Protein concentration 2.0 uM
[13] = target: Bromodomain adjacent to zinc finger domain protein 2B (Homo sapiens) (UniProt Q9UIF8); conditions: Compound concentration 10.0 uM, Protein concentration 2.0 uM
[14] = target: Nucleosome-remodeling factor subunit BPTF (Homo sapiens) (UniProt Q12830); conditions: Compound concentration 10.0 uM, Protein concentration 2.0 uM
[15] = target: Bromodomain-containing protein 1 (Homo sapiens) (UniProt O95696); conditions: Compound concentration 10.0 uM, Protein concentration 2.0 uM
[16] = target: Bromodomain-containing protein 2 (Homo sapiens) (UniProt P25440); conditions: Compound concentration 10.0 uM, Protein concentration 2.0 uM
Sequence of Bromodomain-containing protein 2 (Homo sapiens) (P25440 whole entry, looked up): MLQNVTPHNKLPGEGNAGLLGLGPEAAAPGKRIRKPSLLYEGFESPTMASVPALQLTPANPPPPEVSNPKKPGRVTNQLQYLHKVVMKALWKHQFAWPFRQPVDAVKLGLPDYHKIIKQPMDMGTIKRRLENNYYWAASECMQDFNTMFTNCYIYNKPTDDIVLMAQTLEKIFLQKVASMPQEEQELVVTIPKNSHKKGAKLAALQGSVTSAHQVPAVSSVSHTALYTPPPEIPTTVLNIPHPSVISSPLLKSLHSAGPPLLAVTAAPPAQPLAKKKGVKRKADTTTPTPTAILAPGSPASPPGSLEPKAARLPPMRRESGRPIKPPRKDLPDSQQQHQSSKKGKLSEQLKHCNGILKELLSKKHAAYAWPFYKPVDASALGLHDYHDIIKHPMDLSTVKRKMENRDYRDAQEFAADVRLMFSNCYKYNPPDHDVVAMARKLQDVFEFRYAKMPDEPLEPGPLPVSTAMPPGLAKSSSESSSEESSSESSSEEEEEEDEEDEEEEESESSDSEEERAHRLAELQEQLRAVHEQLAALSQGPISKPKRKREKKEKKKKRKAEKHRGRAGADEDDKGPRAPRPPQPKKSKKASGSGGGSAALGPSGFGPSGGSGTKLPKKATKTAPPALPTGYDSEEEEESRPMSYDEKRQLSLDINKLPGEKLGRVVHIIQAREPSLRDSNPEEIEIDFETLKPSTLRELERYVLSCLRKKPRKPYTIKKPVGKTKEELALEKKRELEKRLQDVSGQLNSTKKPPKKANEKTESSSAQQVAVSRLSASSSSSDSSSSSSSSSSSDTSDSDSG

[17] = target: Bromodomain-containing protein 2 (Homo sapiens) (UniProt P25440); conditions: Compound concentration 10.0 uM, Protein concentration 2.0 uM; remark: listed apart in the source
[18] = target: Bromodomain-containing protein 3 (Homo sapiens) (UniProt Q15059); conditions: Compound concentration 10.0 uM, Protein concentration 2.0 uM
[19] = target: T1, Bromodomain-containing protein 4; conditions: Compound concentration 10.0 uM, Protein concentration 2.0 uM
[20] = target: Bromodomain-containing protein 9 (Homo sapiens) (UniProt Q9H8M2); conditions: Compound concentration 10.0 uM, Protein concentration 2.0 uM
[21] = target: Bromodomain testis-specific protein (Homo sapiens) (UniProt Q58F21); conditions: Compound concentration 10.0 uM, Protein concentration 2.0 uM
[22] = target: Bromodomain testis-specific protein (Homo sapiens) (UniProt Q58F21); conditions: Compound concentration 10.0 uM, Protein concentration 2.0 uM; remark: listed apart in the source
[23] = target: Bromodomain and PHD finger-containing protein 3 (Homo sapiens) (UniProt Q9ULD4); conditions: Compound concentration 10.0 uM, Protein concentration 2.0 uM
[24] = target: Bromodomain and WD repeat-containing protein 1 (Homo sapiens) (UniProt Q9NSI6); conditions: Compound concentration 10.0 uM, Protein concentration 2.0 uM
[25] = target: Bromodomain and WD repeat-containing protein 3 (Homo sapiens) (UniProt Q6RI45); conditions: Compound concentration 10.0 uM, Protein concentration 2.0 uM
[26] = target: Chromatin remodeling regulator CECR2 (Homo sapiens) (UniProt Q9BXF3); conditions: Compound concentration 10.0 uM, Protein concentration 2.0 uM
CREB-binding protein [27] = target: T2, CREB-binding protein; conditions: Compound concentration 10.0 uM, Protein concentration 2.0 uM
[28] = target: Histone acetyltransferase p300 (Homo sapiens) (UniProt Q09472); conditions: Compound concentration 10.0 uM, Protein concentration 2.0 uM
[29] = target: Histone acetyltransferase KAT2A (Homo sapiens) (UniProt Q92830); conditions: Compound concentration 10.0 uM, Protein concentration 2.0 uM
[30] = target: Histone acetyltransferase KAT2B (Homo sapiens) (UniProt Q92831); conditions: Compound concentration 10.0 uM, Protein concentration 2.0 uM
Sequence of Histone acetyltransferase KAT2B (Homo sapiens) (Q92831 whole entry, looked up): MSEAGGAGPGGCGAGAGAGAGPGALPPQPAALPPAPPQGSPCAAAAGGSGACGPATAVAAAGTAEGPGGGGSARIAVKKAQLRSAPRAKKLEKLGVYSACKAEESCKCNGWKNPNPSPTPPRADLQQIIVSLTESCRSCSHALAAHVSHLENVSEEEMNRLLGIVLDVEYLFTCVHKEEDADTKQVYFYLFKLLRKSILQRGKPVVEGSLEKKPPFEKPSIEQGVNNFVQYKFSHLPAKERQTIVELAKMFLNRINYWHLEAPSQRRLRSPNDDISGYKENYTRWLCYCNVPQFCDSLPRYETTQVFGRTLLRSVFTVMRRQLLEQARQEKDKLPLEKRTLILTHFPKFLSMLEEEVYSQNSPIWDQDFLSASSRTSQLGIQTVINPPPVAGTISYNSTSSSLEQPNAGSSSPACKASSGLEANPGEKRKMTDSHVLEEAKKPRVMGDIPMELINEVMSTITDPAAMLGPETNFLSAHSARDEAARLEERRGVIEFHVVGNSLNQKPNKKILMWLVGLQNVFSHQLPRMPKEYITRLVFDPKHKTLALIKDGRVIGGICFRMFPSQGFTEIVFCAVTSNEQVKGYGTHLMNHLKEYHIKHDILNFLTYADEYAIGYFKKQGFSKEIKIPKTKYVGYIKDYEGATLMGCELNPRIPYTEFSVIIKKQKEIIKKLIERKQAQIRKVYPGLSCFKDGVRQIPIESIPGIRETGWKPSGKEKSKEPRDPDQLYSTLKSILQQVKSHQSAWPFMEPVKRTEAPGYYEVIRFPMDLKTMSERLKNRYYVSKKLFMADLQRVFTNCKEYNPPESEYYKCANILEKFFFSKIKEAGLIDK

[31] = target: Protein polybromo-1 (Homo sapiens) (UniProt Q86U86); conditions: Compound concentration 10.0 uM, Protein concentration 2.0 uM
[32] = target: Protein polybromo-1 (Homo sapiens) (UniProt Q86U86); conditions: Compound concentration 10.0 uM, Protein concentration 2.0 uM; remark: listed apart in the source
[33] = target: Protein polybromo-1 (Homo sapiens) (UniProt Q86U86); conditions: Compound concentration 10.0 uM, Protein concentration 2.0 uM; remark: listed apart in the source
[34] = target: Protein polybromo-1 (Homo sapiens) (UniProt Q86U86); conditions: Compound concentration 10.0 uM, Protein concentration 2.0 uM; remark: listed apart in the source
[35] = target: PH-interacting protein (Homo sapiens) (UniProt Q8WWQ0); conditions: Compound concentration 10.0 uM, Protein concentration 2.0 uM
[36] = target: SWI/SNF-related matrix-associated actin-dependent regulator of chromatin subfamily A member 2 (Homo sapiens) (UniProt P51531); conditions: Compound concentration 10.0 uM, Protein concentration 2.0 uM
[37] = target: SWI/SNF-related matrix-associated actin-dependent regulator of chromatin subfamily A member 4 (Homo sapiens) (UniProt P51532); conditions: Compound concentration 10.0 uM, Protein concentration 2.0 uM
[38] = target: Nuclear body protein SP140 (Homo sapiens) (UniProt Q13342); conditions: Compound concentration 10.0 uM, Protein concentration 2.0 uM
[39] = target: Nuclear body protein SP140-like protein (Homo sapiens) (UniProt Q9H930); conditions: Compound concentration 10.0 uM, Protein concentration 2.0 uM
Sequence of Nuclear body protein SP140-like protein (Homo sapiens) (Q9H930 whole entry): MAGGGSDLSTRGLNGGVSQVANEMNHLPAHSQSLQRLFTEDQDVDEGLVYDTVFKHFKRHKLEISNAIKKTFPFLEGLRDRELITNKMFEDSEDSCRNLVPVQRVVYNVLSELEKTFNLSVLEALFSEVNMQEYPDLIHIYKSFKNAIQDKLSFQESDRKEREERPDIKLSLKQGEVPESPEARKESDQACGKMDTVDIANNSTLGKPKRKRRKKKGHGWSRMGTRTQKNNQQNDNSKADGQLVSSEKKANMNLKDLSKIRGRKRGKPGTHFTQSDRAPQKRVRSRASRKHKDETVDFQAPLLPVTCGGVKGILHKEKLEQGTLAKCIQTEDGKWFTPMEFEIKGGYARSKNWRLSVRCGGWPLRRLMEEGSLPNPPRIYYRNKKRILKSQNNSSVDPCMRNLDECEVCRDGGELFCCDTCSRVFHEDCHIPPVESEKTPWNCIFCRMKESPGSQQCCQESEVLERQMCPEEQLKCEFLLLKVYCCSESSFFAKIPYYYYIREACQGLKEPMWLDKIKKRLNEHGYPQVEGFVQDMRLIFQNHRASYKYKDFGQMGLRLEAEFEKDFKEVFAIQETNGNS

[40] = target: Transcription initiation factor TFIID subunit 1 (Homo sapiens) (UniProt P21675); conditions: Compound concentration 10.0 uM, Protein concentration 2.0 uM
[41] = target: Transcription initiation factor TFIID subunit 1 (Homo sapiens) (UniProt P21675); conditions: Compound concentration 10.0 uM, Protein concentration 2.0 uM; remark: listed apart in the source
[42] = target: Transcription initiation factor TFIID subunit 1-like (Homo sapiens) (UniProt Q8IZX4); conditions: Compound concentration 10.0 uM, Protein concentration 2.0 uM
[43] = target: Transcription initiation factor TFIID subunit 1-like (Homo sapiens) (UniProt Q8IZX4); conditions: Compound concentration 10.0 uM, Protein concentration 2.0 uM; remark: listed apart in the source
[44] = target: Transcription intermediary factor 1-alpha (Homo sapiens) (UniProt O15164); conditions: Compound concentration 10.0 uM, Protein concentration 2.0 uM
[45] = target: Transcription intermediary factor 1-beta (Homo sapiens) (UniProt Q13263); conditions: Compound concentration 10.0 uM, Protein concentration 2.0 uM
Peregrin (Homo sapiens) = Peregrin (Homo sapiens) (UniProt P55201); conditions: Compound concentration 10.0 uM, Protein concentration 2.0 uM

SMILES: CCC(=O)N1CCOc2c(cc(-c3ccc(OC)c(OC)c3)cc2OC[C@H]2CCCN(C)C2)C1
- IC50 [1]: 2.46 µM
- IC50 (CREB-binding protein [2]): 0.324 µM
- ΔTm [3]: 1.35 °C and 2.27 °C
- ΔTm [4]: 1.87 °C
- ΔTm [5]: 1.11 °C
- ΔTm [6]: 0.65 °C
- inhibition [7]: 11.6% and 13.1%
- ΔTm [8]: 0.59 °C
- ΔTm [9]: 0.94 °C
- ΔTm [10]: 0.16 °C
- ΔTm [11]: 1.83 °C
- ΔTm [12]: 0.84 °C
- ΔTm [13]: 0.11 °C and 0.34 °C
- ΔTm [14]: 0.75 °C
- ΔTm [15]: 0.86 °C
- ΔTm [16]: 2.1 °C and 1.08 °C
- ΔTm [17]: 1.23 °C
- ΔTm [18]: 1.01 °C and 1.27 °C
- ΔTm [19]: 0.77 °C and 0.68 °C
- ΔTm [20]: 0.93 °C
- ΔTm [21]: 0.73 °C
- ΔTm [22]: 0.3 °C
- ΔTm [23]: 0.92 °C
- ΔTm [24]: 0.28 °C
- ΔTm [25]: 1.86 °C
- ΔTm [26]: 0.59 °C
- ΔTm (CREB-binding protein [27]): 6.8 °C and 8.01 °C and 8.5 °C
- ΔTm [28]: 8.99 °C
- ΔTm [29]: 0.84 °C
- ΔTm [30]: -0.01 °C and 0.36 °C
- ΔTm [31]: 0.4 °C and 0.01 °C
- ΔTm [32]: -0.05 °C
- ΔTm [33]: 0.34 °C
- ΔTm [34]: 0.53 °C
- ΔTm [35]: 1.07 °C
- ΔTm [36]: 0.19 °C
- ΔTm [37]: 0.56 °C
- ΔTm [38]: 0.16 °C
- ΔTm [39]: 1.3 °C
- ΔTm [40]: 0.18 °C
- ΔTm [41]: 0.37 °C
- ΔTm [42]: 0.65 °C
- ΔTm [43]: 0.3 °C
- ΔTm [44]: 0.77 °C
- ΔTm [45]: 0.1 °C
- ΔTm (Peregrin (Homo sapiens)): 0.86 °C
